Measurements published in US20100227853A1, “INHIBITORS OF CYCLIC AMP PHOSPHODIESTERASES” (Trustees of Boston College, priority 2008, published 2010).

Tests used:
[1] = test system: PDE4A, PDE4B, PDE4D, PDE7A, PDE7B, PDE8A, PDE3A; assay: Summary of PDE inhibitor profile; set-up: key: (1): Strong PDE7A inhibitor, weak to moderate PDE4A, 4B inhibitor; (2): Strong PDE7A and PDE4s (including PDE4D) inhibitor; (3): Strong PDE7A inhibitor; conditions: overall classification, Table 18 footnotes
PDE4A1 = target: T1, PDE4A1 (Mus musculus, UniProt O89084); assay: cAMP response in yeast strain expressing PDE4A1; assay type: cell-based, Murine
T1 construct: targets used in the assays are full-length proteins (as opposed to simply the catalytic domain); expressed in transfected cells; host or cells: Schizosaccharomyces pombe, PDE gene integrated in place of cgs2
T1 sequence (O89084 1-610 isoform O89084-2): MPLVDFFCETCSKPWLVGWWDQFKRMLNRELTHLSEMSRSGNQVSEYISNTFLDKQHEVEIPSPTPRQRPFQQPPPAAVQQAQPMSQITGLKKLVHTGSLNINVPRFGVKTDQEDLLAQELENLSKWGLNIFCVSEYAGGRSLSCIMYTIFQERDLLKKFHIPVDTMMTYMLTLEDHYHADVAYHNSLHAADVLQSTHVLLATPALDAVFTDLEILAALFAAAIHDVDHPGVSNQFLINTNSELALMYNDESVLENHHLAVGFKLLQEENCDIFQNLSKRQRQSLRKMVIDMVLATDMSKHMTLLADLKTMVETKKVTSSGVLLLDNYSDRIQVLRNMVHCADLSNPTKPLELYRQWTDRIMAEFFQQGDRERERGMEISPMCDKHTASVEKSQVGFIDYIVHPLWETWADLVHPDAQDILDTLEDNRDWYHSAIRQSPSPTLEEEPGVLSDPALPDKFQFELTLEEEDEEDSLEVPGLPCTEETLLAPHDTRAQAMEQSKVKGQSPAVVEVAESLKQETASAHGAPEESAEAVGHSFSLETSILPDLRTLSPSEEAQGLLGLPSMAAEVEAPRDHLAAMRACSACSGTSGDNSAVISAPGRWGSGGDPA
Excerpt: Values represent the average and SD of two or three independent experiments. […] The strains used are as in FIG. 5A, together with strain CHP1141 (PDE8A). Values represent the average and SD of two or three independent experiments.
Thus, PDE inhibition can be indirectly quantitated by measuring the effect of a compound on cAMP levels in target yeast strains.

PDE8A = target: T2, PDE8A (Mus musculus, UniProt O88502); assay: fbp1-lacZ β-galactosidase reporter assay, PDE8A strain; assay type: cell-based, murine
T2 construct: targets used in the assays are full-length proteins (as opposed to simply the catalytic domain); expressed in transfected cells; host or cells: Schizosaccharomyces pombe, PDE gene integrated in place of cgs2 (strains CHP1141, DDP13)
T2 sequence (O88502 1-823): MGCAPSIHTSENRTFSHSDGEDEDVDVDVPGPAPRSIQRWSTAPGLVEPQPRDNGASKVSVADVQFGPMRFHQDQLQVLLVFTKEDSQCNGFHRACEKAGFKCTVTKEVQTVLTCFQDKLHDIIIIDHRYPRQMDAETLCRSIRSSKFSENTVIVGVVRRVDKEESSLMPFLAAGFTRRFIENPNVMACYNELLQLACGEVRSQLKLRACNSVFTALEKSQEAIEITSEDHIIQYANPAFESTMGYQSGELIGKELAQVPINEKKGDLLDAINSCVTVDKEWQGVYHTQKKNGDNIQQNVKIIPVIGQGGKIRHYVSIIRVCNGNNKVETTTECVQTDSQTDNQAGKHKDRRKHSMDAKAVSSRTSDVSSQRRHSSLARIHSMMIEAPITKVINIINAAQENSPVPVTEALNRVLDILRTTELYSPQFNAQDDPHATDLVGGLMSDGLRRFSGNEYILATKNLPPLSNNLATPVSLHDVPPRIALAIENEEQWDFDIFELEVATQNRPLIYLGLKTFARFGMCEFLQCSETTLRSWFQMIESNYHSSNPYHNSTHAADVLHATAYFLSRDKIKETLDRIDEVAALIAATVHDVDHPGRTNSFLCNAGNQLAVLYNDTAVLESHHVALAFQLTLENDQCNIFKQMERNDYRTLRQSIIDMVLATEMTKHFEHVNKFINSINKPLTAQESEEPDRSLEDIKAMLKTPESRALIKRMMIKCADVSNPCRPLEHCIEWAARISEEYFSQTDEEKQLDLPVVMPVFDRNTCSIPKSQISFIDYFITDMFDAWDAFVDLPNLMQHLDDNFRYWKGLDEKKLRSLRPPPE
Procedure: β-galactosidase assays and characterization of 5FOA-sensitivity were carried out as previously described^10. cAMP assays were performed on exponential phase cells grown in EMM complete medium (3% glucose), using the Assay Designs cAMP EIA kit, according to manufacturer's instructions (Assay Designs, Ann arbor, Mich.).
The effect of known PDE inhibitors on the expression of the fbp1-lacZ fusion in murine PDE-expressing strains was tested. […] For Table 4 β-galactosidase activity was determined from 3 to 4 independent exponential phase cultures. The average±SD represents specific activity per milligram of soluble protein.

For `COc1ccc2c(c1)C1(C)CCC(=O)CC1CC2` (single isomer, unassigned) [Compound 39], the “PDE inhibitor profile (Table 18)” value [1] was 39 (1).
`Cc1cc(C)nc(SCCS(=O)(=O)c2ccc(C(C)(C)C)cc2)n1` [Compound 26] was tested, and the “cAMP Response (% rolipram), 4A1” value (PDE4A1) was 96.00 % rolipram.
With `OCCN(CCO)c1nc(N2CCCCC2)c2nc(N(CCO)CCO)nc(N3CCCCC3)c2n1` [dipyridamole, Dipyridamole] the “inhibition of PDE8A in yeast, in words” value (PDE8A) was “not able to be inhibited”.
